The test system of one data set is Female Balb/c mice. To be noted: as adjuvant with OVA, 200 μL/mouse, serum 28 days after inoculation.
The subject of another data set is RAW 264.7 cells. The procedure: After incubation for 24 h, the cells were pipetted, washed three times with PBS, centrifuged and finally resuspended in ice PBS before assay with flow cytometer (BD FACSCalibur flow cytometer).

Protocol for Female Balb/c mice: In addition, 500 μg/mL of an OVA solution (abbreviated as OVA) was prepared by taking a PBS buffer with a pH of 7.4 as a solvent; 100 μg/mL of an FIP solution (abbreviated as FIP) was prepared by taking a PBS buffer with a pH of 7.4 as a solvent.
After inoculation, the skin condition of the injection site was observed over one week. Blood was collected from the orbit 28 days after inoculation, and sera were separated and the antibody titer was measured.
The antibody titer was measured by adopting the following method: 10 μg/mL of an OVA protein solution was prepared by taking 0.05 mol/L of a Na2CO3—NaHCO3 buffer with a pH of 9.6 as a solvent. […]

On to `CC(C)Cn1cnc2c(N)nc3ccccc3c21` [Vaccine R837, imiquimod], for which, where the note is “acidic aqueous solution with a pH≤6”, the “solubility in acidic aqueous solution” value was “can be dissolved”. Moreover, the “solubility in solvent phase” value (hot DMSO and DMF solutions) is on record as “slightly soluble”. For the same compound, the “IgG titer (OD450 nm)” value in the data set with Female Balb/c mice is reported as 3.07.
In the case of “fluorescein-labeled amphiphilic imiquimod-grafted lauryl γ-polyglutamate [FIP]”, in the data set on RAW 264.7 cells (RAW 264.7, 24 h, FIP 50 μg/mL), the “fluorescence of cells (uptake)” value was “a distinct fluorescence peak could still be seen”. Besides, the “fluorescence intensity of the cells with increase of FIP concentration” value with RAW 264.7 cells (RAW 264.7, different FIP concentrations) is “gradually increased”. Moreover, the “IgG titer (OD450 nm)” value with Female Balb/c mice came to 2.1.

The record behind these values is patent US20240293537A1, “A[…]-GRAFTED LAURYL GAMMA-POL[…] USE THEREOF” (JIANGSU ACADEMY OF AGRICULTURAL SCIENCES, priority 2021, published 2024).
